The text below walks through data of US20250171459A1, “2-METHYL-4',5'-DIHYDROSPIRO[PIPERIDINE-4,7'-THIENO[2,3-C]PYRAN] DERIVATIVES AS INHIBITORS OF APOL1 AND METHODS OF USING SAME” (Vertex Pharmaceuticals Incorporated, priority 2022, published 2025).

This assay deals with T1, APOL1 (Homo sapiens, UniProt O14791).
T1 sequence (O14791 1-398 S342G/I384M): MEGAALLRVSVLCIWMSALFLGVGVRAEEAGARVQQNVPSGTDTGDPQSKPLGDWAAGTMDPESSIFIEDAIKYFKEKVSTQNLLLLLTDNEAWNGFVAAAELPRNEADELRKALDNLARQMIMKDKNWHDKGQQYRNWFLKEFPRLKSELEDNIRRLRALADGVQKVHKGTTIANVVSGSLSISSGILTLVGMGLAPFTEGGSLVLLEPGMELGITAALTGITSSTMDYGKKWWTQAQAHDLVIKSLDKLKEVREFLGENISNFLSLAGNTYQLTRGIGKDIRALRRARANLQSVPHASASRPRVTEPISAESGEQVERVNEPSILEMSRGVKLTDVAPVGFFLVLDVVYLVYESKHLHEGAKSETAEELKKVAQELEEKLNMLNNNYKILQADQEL
The assay is described as follows: MultiTox-Fluor Multiplex Cytotoxicity Assay in tet-inducible APOL1 T-REx-HEK293 cells (cell rescue, ratio of dead to live cells). Particulars: tet-inducible transgenic APOL1 T-REx-HEK293 cell lines, 50 ng/mL tet, 24 hours; read-out: IP50 (i.e., IC50 for cell proliferation). Type of assay: cell-based. A digest of the protocol: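 T-REx-HEK293 cells with tet-inducible APOL1 were treated with compound (10 μM top, 10-point 3-fold dilution, duplicate) plus 50 ng/mL tetracycline for 24 h at 37° C, in DMEM with 2% tet-free FBS. MultiTox-Fluor protease signals gave a dead/live ratio, normalized to no tet (100% viability) and tet alone (0%).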

SMILES strings stand for the structures.

For the compound `CCc1cc2c(s1)CCO[C@@]21CCN(CC(C)O)[C@@H](C)C1` (stereo partly shown) [Compound 242], the IC50 is 100 to 500 nM.
With `CCc1cc2c(s1)CCO[C@@]21CCN(CC(O)C(F)(F)F)[C@@H](C)C1` (stereo partly shown) [Compound 243] the figure was 100 to 500 nM; with `CCc1cc2c(s1)CCO[C@@]21CCN(CC(O)CC(F)(F)F)[C@@H](C)C1` (stereo partly shown) [Compound 244], 100 to 500 nM.
For the compound `CCc1cc2c(s1)CCO[C@@]21CCN(C2CCCC2O)[C@@H](C)C1` (stereo partly shown) [Compound 245], the IC50 lay in the range of 100 to 500 nM.
With `CCc1cc2c(s1)CCO[C@@]21CCN(C[C@H](O)c2ccccc2)[C@@H](C)C1` [Compound 246], the IC50 was < 100 nM.
Turning to `CCc1cc2c(s1)CCO[C@@]21CCN(CC(O)c2ccc(F)cc2)[C@@H](C)C1` (stereo partly shown) [Compound 249], the IC50 is < 100 nM.
On to `CCc1cc2c(s1)CCO[C@@]21CCN(CC(O)c2ccc(F)c(F)c2)[C@@H](C)C1` (stereo partly shown) [Compound 253], for which the IC50 is 100 to 500 nM.
For the compound `CCc1cc2c(s1)CCO[C@@]21CCN(CC(O)c2ccccc2Cl)[C@@H](C)C1` (stereo partly shown) [Compound 254], the IC50 is < 100 nM.
`CCc1cc2c(s1)CCO[C@@]21CCN(CC2(O)CCS(=O)(=O)CC2)[C@@H](C)C1` [Compound 257]: the IC50 lay within 100 to 500 nM.
Regarding `CCc1cc2c(s1)CCO[C@@]21CCN(Cc2cnn(CCS(=O)(=O)NC)c2)[C@@H](C)C1` [Compound 264, 2-[4-[[(2′S,4R)-2-ethyl-2′-methyl-spiro[6,7-dihydrothieno[3,2-c]pyran-4,4′-piperidine]-1′-yl]methyl]pyrazol-1-yl]-N-methyl-ethanesulfonamide], the IC50 is < 100 nM.
As to `CCc1cc2c(s1)CCO[C@@]21CCN(Cc2cn[nH]c2)[C@@H](C)C1` [Compound 265], the IC50 is < 100 nM.
Turning to `CCc1cc2c(s1)CCO[C@@]21CCN(Cc2cnn(CC(C)(CO)CO)c2)[C@@H](C)C1` [Compound 266], the IC50 is < 100 nM.
As for `CCc1cc2c(s1)CCO[C@@]21CCN(Cc2cnn(C)c2)[C@@H](C)C1` [Compound 267], the IC50 was < 100 nM.
With `CCc1cc2c(s1)CCO[C@@]21CCN(Cc2cnn(CCS(C)(=O)=O)c2)[C@@H](C)C1` [Compound 268] the figure was < 100 nM; with `CCc1cc2c(s1)CCO[C@@]21CCN(Cc2cnn(CCO)c2)[C@@H](C)C1` [Compound 269], < 100 nM.
With `CCc1cc2c(s1)CCO[C@]21CCN(Cc2cnn(C)c2)[C@H](C)C1` [Compound 270], the IC50 was in the range of 100 to 500 nM.
For the compound `CCc1cc2c(s1)CCO[C@]21CCN(Cc2cnn(CCS(C)(=O)=O)c2)[C@@H](C)C1` [Compound 271], the IC50 was < 100 nM.
Take `CCc1cc2c(s1)CCO[C@@]21CCN(Cc2cnn(CCS(C)(=O)=O)c2)[C@H](C)C1` [Compound 272]: the IC50 was in the range of 100 to 500 nM.
`CCc1cc2c(s1)CCO[C@]21CCN(Cc2cnn(CCS(C)(=O)=O)c2)[C@H](C)C1` [Compound 273]: the IC50 was 100 to 500 nM.
With `CCc1cc2c(s1)CCO[C@@]21CCN(Cc2ccc(NS(C)(=O)=O)cc2)[C@@H](C)C1` [Compound 274], the IC50 was < 100 nM.
In the case of `CCc1cc2c(s1)CCO[C@@]21CCN(CCC(F)(F)F)[C@@H](C)C1` [Compound 275], the IC50 was in the range of 500 to 1000 nM.
For `CCc1cc2c(s1)CCO[C@@]21CCN(CC(C)C)[C@@H](C)C1` [Compound 276], the IC50 is 500 to 1000 nM.
Turning to `CCc1cc2c(s1)CCO[C@@]21CCN(C)[C@@H](C)C1` [Compound 277], the IC50 was in the range of 500 to 1000 nM.
As to `CCc1cc2c(s1)CCO[C@@]21CCN(CCOC)[C@@H](C)C1` [Compound 278, (2′S,4R)-2-ethyl-1′-(2-methoxyethyl)-2′-methyl-spiro[6,7-dihydrothieno[3,2-c]pyran-4,4′-piperidine]], the IC50 lay within 100 to 500 nM.
For the compound `CCc1cc2c(s1)CCO[C@@]21CCN(Cc2ccon2)[C@@H](C)C1` [Compound 279, (2′S,4R)-2-ethyl-1′-(isoxazol-3-ylmethyl)-2′-methyl-spiro[6,7-dihydrothieno[3,2-c]pyran-4,4′-piperidine]], the IC50 is < 100 nM.
Regarding `CCc1cc2c(s1)CCO[C@@]21CCN(CC(O)CC#N)[C@@H](C)C1` (stereo partly shown) [Compound 280], the IC50 was in the range of 100 to 500 nM.
Take `CCc1cc2c(s1)CCO[C@@]21CCN(CC(O)CO)[C@@H](C)C1` (stereo partly shown) [Compound 281]: the IC50 is 100 to 500 nM.
In the case of `CCc1cc2c(s1)CCO[C@@]21CCN(CC(O)CO)[C@@H](C)C1` (stereo partly shown) [Compound 282], the IC50 fell in the range of 500 to 1000 nM.
On to `CCc1cc2c(s1)CCO[C@@]21CCN(CC(=O)OC)[C@@H](C)C1` [Compound 283], for which the IC50 fell in the range of 500 to 1000 nM.
With `CCc1cc2c(s1)CCO[C@@]21CCN(Cc2ncco2)[C@@H](C)C1` [Compound 284], the IC50 was in the range of 500 to 1000 nM.
Take `CCc1cc2c(s1)CCO[C@@]21CCN(CCn2cccn2)[C@@H](C)C1` [Compound 286]: the IC50 was in the range of 500 to 1000 nM.
Regarding `CCc1cc2c(s1)CCO[C@@]21CCN(Cc2cc(C)on2)[C@@H](C)C1` [Compound 287], the IC50 was < 100 nM.
As for `CCc1cc2c(s1)CCO[C@@]21CCN(Cc2c[nH]c(C)n2)[C@@H](C)C1` [Compound 288], the IC50 was < 100 nM.
As to `CCc1cc2c(s1)CCO[C@@]21CCN(CC)[C@@H](C)C1` [Compound 289], the IC50 lay within 100 to 500 nM.
Regarding `CCc1cc2c(s1)CCO[C@@]21CCN(CC(=O)C(C)(C)C)[C@@H](C)C1` [Compound 290], the IC50 lay within 500 to 1000 nM.
For the compound `CCc1cc2c(s1)CCO[C@@]21CCN(Cc2nc3ccccc3[nH]2)[C@@H](C)C1` [Compound 291], the IC50 lay within 100 to 500 nM.
For the compound `CCc1cc2c(s1)CCO[C@@]21CCN(CC#N)[C@@H](C)C1` [Compound 292], the IC50 was 100 to 500 nM.
In the case of `CCc1cc2c(s1)CCO[C@@]21CCN(Cc2ncon2)[C@@H](C)C1` [Compound 293], the IC50 was in the range of 500 to 1000 nM.
With `CCc1cc2c(s1)CCO[C@@]21CCN(CC(F)F)[C@@H](C)C1` [Compound 294] the figure was 500 to 1000 nM.
Consider `CCc1cc2c(s1)CCO[C@@]21CCN([C@@H]2CC[C@H](NC(=O)OC(C)(C)C)C2)[C@@H](C)C1` [Compound 295], for which the IC50 was in the range of 100 to 500 nM.
With `CCc1cc2c(s1)CCO[C@@]21CCN([C@H]2C[C@H](NC(=O)OC(C)(C)C)C2)[C@@H](C)C1` [Compound 297] the figure was 500 to 1000 nM; with `CCc1cc2c(s1)CCO[C@@]21CCN([C@H]2C[C@@H](NC(=O)OC(C)(C)C)C2)[C@@H](C)C1` [Compound 298], 500 to 1000 nM.
As for `CCc1cc2c(s1)CCO[C@@]21CCN(C[C@H]2C[C@@H](N)C2)[C@@H](C)C1` [Compound 299, 3-[[(2′S,4R)-2-ethyl-2′-methyl-spiro[6,7-dihydrothieno[3,2-c]pyran-4,4′-piperidine]-1′-yl]methyl]cyclobutanamine], the IC50 is 100 to 500 nM.
Turning to `CCc1cc2c(s1)CCO[C@@]21CCN(C[C@H]2C[C@@H](NC(=O)C3CC(F)(F)C3)C2)[C@@H](C)C1` [Compound 300, N-[3-[[(2′S,4R)-2-ethyl-2′-methyl-spiro[6,7-dihydrothieno[3,2-c]pyran-4,4′-piperidine]-1′-yl]methyl]cyclobutyl]-3,3-difluoro-cyclobutanecarboxamide], the IC50 was < 100 nM.
With `CCc1cc2c(s1)CCO[C@@]21CCN(C[C@H]2C[C@@H](NC(=O)COCC(F)(F)F)C2)[C@@H](C)C1` [Compound 301, N-[3-[[(2′S,4R)-2-ethyl-2′-methyl-spiro[6,7-dihydrothieno[3,2-c]pyran-4,4′-piperidine]-1′-yl]methyl]cyclobutyl]-2-(2,2,2-trifluoroethoxy)acetamide] the figure was 100 to 500 nM; with `CCc1cc2c(s1)CCO[C@@]21CCN(C[C@H]2C[C@@H](NC(=O)OC)C2)[C@@H](C)C1` [Compound 302, methyl N-[3-[[(2′S,4R)-2-ethyl-2′-methyl-spiro[6,7-dihydrothieno[3,2-c]pyran-4,4′-piperidine]-1′-yl]methyl]cyclobutyl]carbamate], < 100 nM.
The same measure for `CCc1cc2c(s1)CCO[C@@]21CCN(C[C@H]2C[C@@H](NC(=O)CC3(O)CCCCC3)C2)[C@@H](C)C1` [Compound 303]: < 100 nM.
The same measure for `CCc1cc2c(s1)CCO[C@@]21CCN(C[C@H]2C[C@@H](NC(=O)c3cc(C)no3)C2)[C@@H](C)C1` [Compound 304]: < 100 nM; for `CCc1cc2c(s1)CCO[C@@]21CCN(C[C@H]2C[C@@H](NC(=O)[C@H]3C[C@@H]3C(F)F)C2)[C@@H](C)C1` [Compound 305]: < 100 nM.
In the case of `CCCCC(O)C(=O)N[C@H]1C[C@@H](CN2CC[C@]3(C[C@@H]2C)OCCc2sc(CC)cc23)C1` (stereo partly shown) [Compound 306], the IC50 was < 100 nM.
Take `CCc1cc2c(s1)CCO[C@@]21CCN(C[C@H]2C[C@@H](NC(=O)c3ccc4cn[nH]c4c3)C2)[C@@H](C)C1` [Compound 307]: the IC50 is < 100 nM.
In the case of `CCc1cc2c(s1)CCO[C@@]21CCN(C[C@H]2C[C@@H](NC(=O)c3oncc3C)C2)[C@@H](C)C1` [Compound 308], the IC50 was < 100 nM.
The same measure for `CCc1cc2c(s1)CCO[C@@]21CCN(C[C@H]2C[C@@H](NC(=O)CC3CC3(F)F)C2)[C@@H](C)C1` (stereo partly shown) [Compound 309]: < 100 nM; for `CCc1cc2c(s1)CCO[C@@]21CCN(C[C@H]2C[C@@H](NC(=O)c3cnn(CC(F)(F)F)c3)C2)[C@@H](C)C1` [Compound 310]: 100 to 500 nM.
In the case of `CCc1cc2c(s1)CCO[C@@]21CCN(C[C@H]2C[C@@H](NC(=O)c3cccc4c3OCCC4)C2)[C@@H](C)C1` [Compound 311], the IC50 was 100 to 500 nM.
